According to PubChem BioAssay (NCI):
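These data come from cells grown in 96-well plates and exposed to compound for 48 hours at five concentrations. The concentration for 50% growth inhibition is given as GI50. Definition used: TGI = concentration required for complete inhibition of growth.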

Tests used:
Test in all cases: NCI-60 cell line screen, 48 h
786-0 renal = tested on: 786-0 renal
A498 renal = tested on: A498 renal
A549 NSCLC = tested on: A549 NSCLC
ACHN renal = tested on: ACHN renal
BT-549 breast = tested on: BT-549 breast
CAKI-1 renal = tested on: CAKI-1 renal
CCRF-CEM leukemia = tested on: CCRF-CEM leukemia
DU-145 prostate = tested on: DU-145 prostate
EKVX NSCLC = tested on: EKVX NSCLC
HCT-116 colon = tested on: HCT-116 colon
HCT-15 colon = tested on: HCT-15 colon
HOP-62 NSCLC = tested on: HOP-62 NSCLC
HOP-92 NSCLC = tested on: HOP-92 NSCLC
HS 578T breast = tested on: HS 578T breast
HT29 colon = tested on: HT29 colon
IGROV1 ovarian = tested on: IGROV1 ovarian
K-562 leukemia = tested on: K-562 leukemia
KM12 colon = tested on: KM12 colon
LOX IMVI melanoma = tested on: LOX IMVI melanoma
M14 melanoma = tested on: M14 melanoma
MALME-3M melanoma = tested on: MALME-3M melanoma
MCF7 breast = tested on: MCF7 breast
MDA-MB-231 breast = tested on: MDA-MB-231 breast
MDA-MB-435 = tested on: MDA-MB-435
MOLT-4 leukemia = tested on: MOLT-4 leukemia
NCI-H226 lung = tested on: NCI-H226 lung
NCI-H23 lung = tested on: NCI-H23 lung
NCI-H460 lung = tested on: NCI-H460 lung
NCI-H522 lung = tested on: NCI-H522 lung
NCI/ADR-RES ovarian = tested on: NCI/ADR-RES ovarian
OVCAR-3 ovarian = tested on: OVCAR-3 ovarian
OVCAR-4 ovarian = tested on: OVCAR-4 ovarian
OVCAR-5 ovarian = tested on: OVCAR-5 ovarian
OVCAR-8 ovarian = tested on: OVCAR-8 ovarian
PC-3 prostate = tested on: PC-3 prostate
RPMI-8226 leukemia = tested on: RPMI-8226 leukemia
RXF 393 renal = tested on: RXF 393 renal
SF-268 CNS = tested on: SF-268 CNS
SF-295 CNS = tested on: SF-295 CNS
SF-539 CNS = tested on: SF-539 CNS
SK-MEL-2 melanoma = tested on: SK-MEL-2 melanoma
SK-MEL-28 melanoma = tested on: SK-MEL-28 melanoma
SK-MEL-5 melanoma = tested on: SK-MEL-5 melanoma
SK-OV-3 ovarian = tested on: SK-OV-3 ovarian
SN12C renal = tested on: SN12C renal
SNB-19 CNS = tested on: SNB-19 CNS
SNB-75 CNS = tested on: SNB-75 CNS
SR leukemia = tested on: SR leukemia
SW-620 colon = tested on: SW-620 colon
T-47D breast = tested on: T-47D breast
TK-10 renal = tested on: TK-10 renal
U251 CNS = tested on: U251 CNS
UACC-257 melanoma = tested on: UACC-257 melanoma
UACC-62 melanoma = tested on: UACC-62 melanoma
UO-31 renal = tested on: UO-31 renal
COLO 205 colon = tested on: COLO 205 colon
HCC-2998 colon = tested on: HCC-2998 colon

## CC(Cc1ccc(O)cc1)NCC(O)c1ccc(O)c(O)c1 (stereo not given)
786-0 renal
  TGI: > 100 µM
A498 renal
  TGI: > 100 µM
A549 NSCLC
  TGI: > 100 µM
ACHN renal
  TGI: > 100 µM
BT-549 breast
  TGI: > 100 µM
CAKI-1 renal
  TGI: > 100 µM
CCRF-CEM leukemia
  TGI: > 100 µM
DU-145 prostate
  TGI: > 100 µM
EKVX NSCLC
  TGI: > 100 µM
HCT-116 colon
  TGI: > 100 µM
HCT-15 colon
  TGI: > 100 µM
HOP-62 NSCLC
  TGI: > 100 µM
HOP-92 NSCLC
  TGI: > 100 µM
HS 578T breast
  TGI: > 100 µM
HT29 colon
  TGI: > 100 µM
IGROV1 ovarian
  TGI: > 100 µM
K-562 leukemia
  TGI: > 100 µM
KM12 colon
  TGI: > 100 µM
LOX IMVI melanoma
  TGI: > 100 µM
M14 melanoma
  TGI: > 100 µM
MALME-3M melanoma
  TGI: > 100 µM
MCF7 breast
  TGI: > 100 µM
MDA-MB-231 breast
  TGI: > 100 µM
MDA-MB-435
  TGI: > 100 µM
MOLT-4 leukemia
  TGI: > 100 µM
NCI-H226 lung
  TGI: > 100 µM
NCI-H23 lung
  TGI: > 100 µM
NCI-H460 lung
  TGI: > 100 µM
NCI-H522 lung
  TGI: > 100 µM
NCI/ADR-RES ovarian
  TGI: > 100 µM
OVCAR-3 ovarian
  TGI: > 100 µM
OVCAR-4 ovarian
  TGI: > 100 µM
OVCAR-5 ovarian
  TGI: > 100 µM
OVCAR-8 ovarian
  TGI: > 100 µM
PC-3 prostate
  TGI: > 100 µM
RPMI-8226 leukemia
  TGI: > 100 µM
RXF 393 renal
  TGI: > 100 µM
SF-268 CNS
  TGI: > 100 µM
SF-295 CNS
  TGI: > 100 µM
SF-539 CNS
  TGI: > 100 µM
SK-MEL-2 melanoma
  TGI: > 100 µM
SK-MEL-28 melanoma
  TGI: > 100 µM
SK-MEL-5 melanoma
  TGI: > 100 µM
SK-OV-3 ovarian
  TGI: > 100 µM
SN12C renal
  TGI: > 100 µM
SNB-19 CNS
  TGI: > 100 µM
SNB-75 CNS
  TGI: > 100 µM
SR leukemia
  TGI: > 100 µM
SW-620 colon
  TGI: > 100 µM
T-47D breast
  TGI: > 100 µM
TK-10 renal
  TGI: > 100 µM
U251 CNS
  TGI: > 100 µM
UACC-257 melanoma
  TGI: > 100 µM
UACC-62 melanoma
  TGI: > 100 µM
UO-31 renal
  TGI: > 100 µM

## Cc1c(-c2ccc(O)c(O)c2)oc(=O)c2c(O)cc(O)cc12
786-0 renal
  GI50: 14.4 µM
  TGI: > 100 µM
A498 renal
  GI50: 20.7 µM
  TGI: 56.8 µM
A549 NSCLC
  GI50: 19.4 µM
  TGI: > 100 µM
ACHN renal
  GI50: 21.3 µM
  TGI: > 100 µM
BT-549 breast
  GI50: 6.78 µM
  TGI: 43.2 µM
CAKI-1 renal
  GI50: 11.3 µM
  TGI: 46.5 µM
CCRF-CEM leukemia
  GI50: 2.83 µM
  TGI: > 100 µM
COLO 205 colon
  GI50: 67.4 µM
  TGI: > 100 µM
DU-145 prostate
  GI50: 28.8 µM
  TGI: > 100 µM
EKVX NSCLC
  GI50: 15.7 µM
  TGI: 63.9 µM
HCC-2998 colon
  GI50: 31.5 µM
  TGI: 88.6 µM
HCT-116 colon
  GI50: 14 µM
  TGI: > 100 µM
HCT-15 colon
  GI50: 9.66 µM
  TGI: > 100 µM
HOP-62 NSCLC
  GI50: 18.2 µM
  TGI: 61.5 µM
HOP-92 NSCLC
  GI50: 17.2 µM
  TGI: > 100 µM
HS 578T breast
  GI50: 9.69 µM
  TGI: 91.9 µM
HT29 colon
  GI50: 54.1 µM
  TGI: > 100 µM
IGROV1 ovarian
  GI50: 2.3 µM
  TGI: 6.34 µM
K-562 leukemia
  GI50: 19.5 µM
  TGI: > 100 µM
KM12 colon
  GI50: 12.2 µM
  TGI: 54.7 µM
LOX IMVI melanoma
  GI50: 13.1 µM
  TGI: > 100 µM
M14 melanoma
  GI50: 8.07 µM
  TGI: 68.3 µM
MALME-3M melanoma
  GI50: 1.16 µM
  TGI: 10.3 µM
MCF7 breast
  GI50: 39.1 µM
  TGI: > 100 µM
MDA-MB-231 breast
  GI50: 86.8 µM
  TGI: > 100 µM
MDA-MB-435
  GI50: 2.17 µM
  TGI: 6.14 µM
MOLT-4 leukemia
  GI50: 42.8 µM
  TGI: > 100 µM
NCI-H226 lung
  GI50: 21.3 µM
  TGI: > 100 µM
NCI-H460 lung
  GI50: 12.1 µM
  TGI: > 100 µM
NCI-H522 lung
  GI50: 5.08 µM
  TGI: > 100 µM
NCI/ADR-RES ovarian
  GI50: 14.1 µM
  TGI: > 100 µM
OVCAR-3 ovarian
  GI50: 11.1 µM
  TGI: 57.8 µM
OVCAR-4 ovarian
  GI50: 46.5 µM
  TGI: > 100 µM
OVCAR-5 ovarian
  GI50: 42.9 µM
  TGI: > 100 µM
OVCAR-8 ovarian
  GI50: 17.9 µM
  TGI: 90 µM
PC-3 prostate
  GI50: 29.5 µM
  TGI: > 100 µM
RPMI-8226 leukemia
  GI50: 7.69 µM
  TGI: 45.3 µM
RXF 393 renal
  GI50: 49.8 µM
  TGI: > 100 µM
SF-268 CNS
  GI50: 11.1 µM
  TGI: > 100 µM
SF-295 CNS
  GI50: 7.52 µM
  TGI: 28.9 µM
SF-539 CNS
  GI50: 13.2 µM
  TGI: 63.7 µM
SK-MEL-2 melanoma
  GI50: 26 µM
  TGI: > 100 µM
SK-MEL-28 melanoma
  GI50: 19.8 µM
  TGI: > 100 µM
SK-MEL-5 melanoma
  GI50: 6.59 µM
  TGI: 30.8 µM
SK-OV-3 ovarian
  GI50: 62.7 µM
  TGI: > 100 µM
SN12C renal
  GI50: 14.5 µM
  TGI: 59.1 µM
SNB-19 CNS
  GI50: 45.6 µM
  TGI: > 100 µM
SR leukemia
  GI50: 4.52 µM
  TGI: > 100 µM
SW-620 colon
  GI50: 4.92 µM
  TGI: > 100 µM
T-47D breast
  GI50: 88.7 µM
  TGI: > 100 µM
TK-10 renal
  GI50: 7.97 µM
  TGI: 36 µM
U251 CNS
  GI50: 9.67 µM
  TGI: > 100 µM
UACC-257 melanoma
  GI50: 14.4 µM
  TGI: 53.3 µM
UACC-62 melanoma
  GI50: 8.45 µM
  TGI: 45.1 µM
UO-31 renal
  GI50: 6.9 µM
  TGI: > 100 µM
